Measurements reported in patent US10670605B2, “Cysteine reactive probes and uses thereof” (The Scripps Research Institute, priority 2015, dated 2020).

Experiments:
Test in all cases: Competitive isoTOP-ABPP in situ (fragment-treated cells)
Assay type in all cases: cell-based
[1] = molecular target: T1, cysteines in MDA-MB-231 and Ramos cells (Homo sapiens, UniProt P42166)
T1 sequence (P42166 1-694): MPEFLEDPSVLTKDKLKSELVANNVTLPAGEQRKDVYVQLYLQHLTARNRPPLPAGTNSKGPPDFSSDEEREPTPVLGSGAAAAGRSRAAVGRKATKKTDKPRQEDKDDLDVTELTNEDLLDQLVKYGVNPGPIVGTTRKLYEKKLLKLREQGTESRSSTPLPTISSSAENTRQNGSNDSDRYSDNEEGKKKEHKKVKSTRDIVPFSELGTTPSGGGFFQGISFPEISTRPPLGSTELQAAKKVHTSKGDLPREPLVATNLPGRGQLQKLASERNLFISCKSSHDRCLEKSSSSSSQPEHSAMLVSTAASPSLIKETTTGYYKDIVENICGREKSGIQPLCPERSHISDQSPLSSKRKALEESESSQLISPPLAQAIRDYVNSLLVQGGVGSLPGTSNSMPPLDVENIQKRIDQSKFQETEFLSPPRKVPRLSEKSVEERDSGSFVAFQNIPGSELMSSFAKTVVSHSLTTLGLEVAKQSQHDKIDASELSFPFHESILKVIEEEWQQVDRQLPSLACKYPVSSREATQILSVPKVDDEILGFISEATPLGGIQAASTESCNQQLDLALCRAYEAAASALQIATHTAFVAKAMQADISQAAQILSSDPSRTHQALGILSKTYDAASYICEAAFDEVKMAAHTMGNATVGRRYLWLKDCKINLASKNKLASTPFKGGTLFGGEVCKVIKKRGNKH

[2] = molecular target: cysteines in MDA-MB-231 and Ramos cells (Homo sapiens, UniProt Q9NYL2)
cysteines in MDA-MB-231 and Ramos cells (Homo sapiens, UniProt Q9NYL2), sequence (Q9NYL2 whole entry): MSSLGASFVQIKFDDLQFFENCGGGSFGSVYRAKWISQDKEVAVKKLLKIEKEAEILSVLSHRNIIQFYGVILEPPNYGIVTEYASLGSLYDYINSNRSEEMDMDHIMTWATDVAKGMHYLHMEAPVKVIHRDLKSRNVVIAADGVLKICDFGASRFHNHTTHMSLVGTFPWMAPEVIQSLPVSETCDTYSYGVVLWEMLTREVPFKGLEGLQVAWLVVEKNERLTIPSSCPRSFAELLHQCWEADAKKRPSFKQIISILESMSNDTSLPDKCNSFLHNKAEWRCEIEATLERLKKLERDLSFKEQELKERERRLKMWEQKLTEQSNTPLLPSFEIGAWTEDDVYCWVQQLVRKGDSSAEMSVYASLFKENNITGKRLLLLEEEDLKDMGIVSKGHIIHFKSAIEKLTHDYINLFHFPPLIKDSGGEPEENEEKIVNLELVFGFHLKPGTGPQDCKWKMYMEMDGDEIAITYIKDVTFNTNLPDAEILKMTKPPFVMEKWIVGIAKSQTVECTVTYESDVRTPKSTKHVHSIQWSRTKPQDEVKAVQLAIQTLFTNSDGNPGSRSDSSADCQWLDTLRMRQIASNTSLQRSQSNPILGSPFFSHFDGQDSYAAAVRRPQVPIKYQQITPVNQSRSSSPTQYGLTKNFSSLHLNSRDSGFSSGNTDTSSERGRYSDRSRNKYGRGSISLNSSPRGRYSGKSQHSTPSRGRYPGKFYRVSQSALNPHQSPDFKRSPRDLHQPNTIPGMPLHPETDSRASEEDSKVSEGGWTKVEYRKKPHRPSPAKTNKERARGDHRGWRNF

[3] = molecular target: T2, cysteines in MDA-MB-231 and Ramos cells (Homo sapiens, UniProt O95571)
T2 sequence (O95571 8-254): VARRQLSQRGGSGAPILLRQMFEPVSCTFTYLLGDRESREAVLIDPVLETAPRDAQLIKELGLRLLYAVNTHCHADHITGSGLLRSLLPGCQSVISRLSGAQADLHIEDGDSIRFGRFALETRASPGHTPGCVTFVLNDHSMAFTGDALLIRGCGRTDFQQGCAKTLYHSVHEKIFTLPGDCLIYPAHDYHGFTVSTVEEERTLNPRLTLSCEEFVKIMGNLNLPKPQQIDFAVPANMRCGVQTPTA

[4] = molecular target: T3, cysteines in MDA-MB-231 and Ramos cells (Homo sapiens, UniProt Q9UKF6)
T3 sequence (Q9UKF6 1-684): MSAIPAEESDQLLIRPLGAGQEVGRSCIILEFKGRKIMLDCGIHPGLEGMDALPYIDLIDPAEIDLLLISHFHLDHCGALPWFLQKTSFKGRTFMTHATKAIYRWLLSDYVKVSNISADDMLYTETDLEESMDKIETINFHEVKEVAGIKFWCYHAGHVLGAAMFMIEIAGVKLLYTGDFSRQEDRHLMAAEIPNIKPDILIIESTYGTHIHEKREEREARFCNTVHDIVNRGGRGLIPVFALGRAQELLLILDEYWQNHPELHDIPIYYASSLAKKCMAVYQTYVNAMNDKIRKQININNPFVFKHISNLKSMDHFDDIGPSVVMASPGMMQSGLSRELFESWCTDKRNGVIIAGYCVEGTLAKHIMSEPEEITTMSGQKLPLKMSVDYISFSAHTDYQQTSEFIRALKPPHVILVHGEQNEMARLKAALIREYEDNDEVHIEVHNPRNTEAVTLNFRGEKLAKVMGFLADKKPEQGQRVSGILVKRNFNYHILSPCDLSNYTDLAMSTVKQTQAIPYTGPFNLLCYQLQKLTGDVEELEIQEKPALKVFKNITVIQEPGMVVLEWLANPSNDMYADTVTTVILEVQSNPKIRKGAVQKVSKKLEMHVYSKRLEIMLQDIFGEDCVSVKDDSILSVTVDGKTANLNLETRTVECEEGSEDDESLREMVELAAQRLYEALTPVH

[5] = molecular target: T4, cysteines in MDA-MB-231 and Ramos cells (Homo sapiens, UniProt Q15233)
T4 sequence (Q15233 1-471): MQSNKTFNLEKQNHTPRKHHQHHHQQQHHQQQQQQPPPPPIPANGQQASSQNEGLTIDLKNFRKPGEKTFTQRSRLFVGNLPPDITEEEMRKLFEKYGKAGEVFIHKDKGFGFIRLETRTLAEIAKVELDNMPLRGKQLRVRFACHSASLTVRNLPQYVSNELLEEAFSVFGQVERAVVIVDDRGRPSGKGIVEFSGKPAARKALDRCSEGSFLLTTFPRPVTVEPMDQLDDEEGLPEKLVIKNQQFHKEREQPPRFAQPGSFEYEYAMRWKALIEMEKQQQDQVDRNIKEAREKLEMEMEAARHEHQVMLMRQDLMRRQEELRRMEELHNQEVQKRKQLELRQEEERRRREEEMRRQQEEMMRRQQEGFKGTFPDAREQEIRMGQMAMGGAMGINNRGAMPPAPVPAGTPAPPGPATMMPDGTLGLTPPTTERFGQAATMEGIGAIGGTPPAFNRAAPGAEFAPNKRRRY

[6] = molecular target: T5, cysteines in MDA-MB-231 and Ramos cells (Homo sapiens, UniProt Q99497)
T5 sequence (Q99497 1-189): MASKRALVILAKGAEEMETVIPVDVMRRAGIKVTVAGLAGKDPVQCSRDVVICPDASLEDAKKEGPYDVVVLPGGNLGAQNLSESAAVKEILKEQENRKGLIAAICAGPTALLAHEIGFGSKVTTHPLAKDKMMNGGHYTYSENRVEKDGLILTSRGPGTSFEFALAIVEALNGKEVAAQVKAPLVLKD

COc1ccc2c(c1)CCCN2C(=O)CCl [compound 2]
isoTOP-ABPP reactivity P42166_C341 TMPO ([1]; 200 μM, insitu, 231): 10.4
isoTOP-ABPP reactivity P42166_C561 TMPO ([1]; 200 μM, insitu, 231): 8.3
isoTOP-ABPP reactivity P42166_C629 TMPO ([1]; 200 μM, insitu, 231): 4.4
isoTOP-ABPP reactivity Q9NYL2_C22 MUTK Mitogen-activated protein kinase MLTK ([2]; 200 μM, insitu, 231): 5.5
isoTOP-ABPP reactivity O95571_C170 ETHE1 ([3]; 200 μM, insitu, 231): 3.8
isoTOP-ABPP reactivity Q9UKF6_C498 CPSF3 ([4]; 200 μM, insitu, 231): 6.2

COc1ccc(C2CC(c3cccs3)=NN2C(=O)CCl)cc1 (centres unmarked) [compound 4]
isoTOP-ABPP reactivity P42166_C561 TMPO ([1]; 100 μM in situ 231): 20.0
isoTOP-ABPP reactivity Q9NYL2_C22 MUTK Mitogen-activated protein kinase MLTK ([2]; 100 μM in situ 231): 20.0
isoTOP-ABPP reactivity Q15233_C145 NONO ([5]; 100 μM in situ 231): 1.6
isoTOP-ABPP reactivity O95571_C170 ETHE1 ([3]; 100 μM in situ 231): 2.3
isoTOP-ABPP reactivity Q99497_C106 PARK7 ([6]; 100 μM in situ 231): 0.9
isoTOP-ABPP reactivity Q9UKF6_C498 CPSF3 ([4]; 100 μM in situ 231): 3.5

COc1cc2c(cc1OC)CN(C(=O)CCl)CC2 [compound 8]
isoTOP-ABPP reactivity P42166_C341 TMPO ([1]; 200 μM, insitu, 231): 4.4
isoTOP-ABPP reactivity P42166_C561 TMPO ([1]; 200 μM, insitu, 231): 4.6
isoTOP-ABPP reactivity P42166_C629 TMPO ([1]; 200 μM, insitu, 231): 1.7
isoTOP-ABPP reactivity P42166_C684 TMPO ([1]; 200 μM, insitu, 231): 4.6
isoTOP-ABPP reactivity Q9NYL2_C22 MUTK Mitogen-activated protein kinase MLTK ([2]; 200 μM, insitu, 231): 1.4
isoTOP-ABPP reactivity Q15233_C145 NONO ([5]; 200 μM, insitu, 231): 12.0
isoTOP-ABPP reactivity O95571_C170 ETHE1 ([3]; 200 μM, insitu, 231): 6.8
isoTOP-ABPP reactivity Q9UKF6_C498 CPSF3 ([4]; 200 μM, insitu, 231): 20.0

O=C(CCl)N1CCC(Cc2ccccc2)CC1 [compound 9]
isoTOP-ABPP reactivity P42166_C561 TMPO ([1]; 200 μM, insitu, 231): 3.7
isoTOP-ABPP reactivity Q9NYL2_C22 MUTK Mitogen-activated protein kinase MLTK ([2]; 200 μM, insitu, 231): 10.3
isoTOP-ABPP reactivity Q15233_C145 NONO ([5]; 200 μM, insitu, 231): 1.4
isoTOP-ABPP reactivity O95571_C170 ETHE1 ([3]; 200 μM, insitu, 231): 2.0

O=C(CCl)N1CCN(S(=O)(=O)c2ccccc2F)CC1 [compound 10]
isoTOP-ABPP ratio P42166_C561 ([1]; 200 μM, insitu, 231): 17.8
isoTOP-ABPP ratio, cysteine P42166_C518 ([1]; 200 μM, insitu, 231): 4.2
isoTOP-ABPP ratio, cysteine P42166_C629 ([1]; 200 μM, insitu, 231): 2.5
isoTOP-ABPP ratio, cysteine P42166_C684 ([1]; 200 μM, insitu, 231): 5.2
isoTOP-ABPP ratio Q9NYL2_C22 ([2]; 200 μM, insitu, 231): 1.2
isoTOP-ABPP ratio Q15233_C145 ([5]; 200 μM, insitu, ramos): 2.2
isoTOP-ABPP ratio O95571_C170 ([3]; 200 μM, insitu, 231): 9.0
isoTOP-ABPP ratio Q99497_C106 ([6]; 200 μM, insitu, 231): 1.7
isoTOP-ABPP ratio Q9UKF6_C498 ([4]; 200 μM, insitu, 231): 20.0
isoTOP-ABPP ratio Q9UKF6_C498 ([4]; 200 μM, insitu, ramos): 2.8

Cn1cc(S(=O)(=O)N2CCOCC2)cc1C(=O)NC(=O)CCl [compound 11]
isoTOP-ABPP ratio P42166_C341 ([1]; 100 μM in situ 231): 0.8
isoTOP-ABPP ratio P42166_C561 ([1]; 100 μM in situ 231): 0.6
isoTOP-ABPP ratio, cysteine P42166_C518 ([1]; 100 μM in situ 231): 0.8
isoTOP-ABPP ratio, cysteine P42166_C629 ([1]; 100 μM in situ 231): 0.6
isoTOP-ABPP ratio, cysteine P42166_C684 ([1]; 100 μM in situ 231): 0.7
isoTOP-ABPP ratio Q9NYL2_C22 ([2]; 100 μM in situ 231): 0.7
isoTOP-ABPP ratio Q15233_C145 ([5]; 100 μM in situ 231): 1.2
isoTOP-ABPP ratio O95571_C170 ([3]; 100 μM in situ 231): 1.2
isoTOP-ABPP ratio Q99497_C106 ([6]; 100 μM in situ 231): 1.3
isoTOP-ABPP ratio Q9UKF6_C498 ([4]; 100 μM in situ 231): 1.3

O=C(CCl)NC(=O)NC12CC3CC(CC(C3)C1)C2 [compound 12]
isoTOP-ABPP ratio P42166_C561 ([1]; 200 μM, insitu, 231): 16.1
isoTOP-ABPP ratio Q9NYL2_C22 ([2]; 200 μM, insitu, 231): 0.7
isoTOP-ABPP ratio Q15233_C145 ([5]; 200 μM, insitu, 231): 2.4
isoTOP-ABPP ratio O95571_C170 ([3]; 200 μM, insitu, 231): 6.3
isoTOP-ABPP ratio Q99497_C106 ([6]; 200 μM, insitu, 231): 3.0
isoTOP-ABPP ratio Q9UKF6_C498 ([4]; 200 μM, insitu, 231): 4.1
